According to PubChem BioAssay AID1259411 (Chemical Carcinogenesis Research Information System (CCRIS), 2018):
Calls of active or inactive are those of the source. The rule behind the calls is not given here.

Tested on: rodent carcinogenicity bioassays, tumor incidence
Assay: CCRIS carcinogenicity studies
Conditions: Dose: 0, Dose: 0
How it was run: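 Archive of carcinogenicity, mutagenicity, tumor promotion and tumor inhibition results drawn from journals, NCI reports and other sources, expert-reviewed; covers 1985-2011 and is no longer updated.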

Q: Which carcinogen call (Species: RAT, Strain/Sex: SPRAGUE-DAWLEY/FEMALE, Route: ORAL, 20, 60, 180 MG/KG/D IN DIET FOR 2 YR (STUDY DURATION: 2 YR), 20, 60, 180 MG/KG/D IN DIET FOR 2 YR (STUDY DURATION: 2 YR)) does the source give for `O=C(O)c1nn(Cc2ccc(Cl)cc2Cl)c2ccccc12` here?
A: inactive; negative

Q: What about the carcinogen call (Species: RAT, Strain/Sex: SPRAGUE-DAWLEY/MALE, Route: ORAL, 20, 60, 180 MG/KG/D IN DIET FOR 2 YR (STUDY DURATION: 2 YR), 20, 60, 180 MG/KG/D IN DIET FOR 2 YR (STUDY DURATION: 2 YR)) of the same compound?
A: inactive; negative

Q: For `CC1(C)[C@H](C(=O)O[C@H](C#N)c2cccc(Oc3ccccc3)c2)[C@@H]1C=C(Br)Br`, which carcinogen call (Species: MOUSE, Strain/Sex: C57BL/FEMALE, Route: INTRAGASTRIC, 1, 4, 8 MG/KG IN ARACHIS OIL 5 D/WK FOR 104 WK (STUDY DURATION: 120 WK), 1, 4, 8 MG/KG IN ARACHIS OIL 5 D/WK FOR 104 WK (STUDY DURATION: 120 WK)) is on record?
A: inactive; negative

Q: What about the carcinogen call (Species: MOUSE, Strain/Sex: C57BL/MALE, Route: INTRAGASTRIC, 1, 4, 8 MG/KG IN ARACHIS OIL 5 D/WK FOR 104 WK (STUDY DURATION: 120 WK), 1, 4, 8 MG/KG IN ARACHIS OIL 5 D/WK FOR 104 WK (STUDY DURATION: 120 WK)) of the same compound?
A: inactive; negative

Q: And the carcinogen call (Species: MOUSE, Strain/Sex: SWISS/MALE, FEMALE, Route: DERMAL, 1, 2, 4 MG/KG BW IN 200 µL ACETONE 3/WK FOR 32 WK (STUDY DURATION: 32 WK), 1, 2, 4 MG/KG BW IN 200 µL ACETONE 3/WK FOR 32 WK (STUDY DURATION: 32 WK))?
A: inactive; negative

Q: And the carcinogen call (Species: Mouse, Strain/Sex: Crl:CD-1(ICR)BR/Female (50/Group), Route: Oral, 10, 100, 1000, 2000 ppm in feed for 97 wk, 10, 100, 1000, 2000 ppm in feed for 97 wk)?
A: inactive; negative

Q: What about the carcinogen call (Species: Mouse, Strain/Sex: Crl:CD-1(ICR)BR/Male (50/Group), Route: Oral, 10, 100, 1000, 2000 ppm in feed for 97 wk, 10, 100, 1000, 2000 ppm in feed for 97 wk) of the same compound?
A: inactive; negative

Q: And the carcinogen call (Species: RAT, Strain/Sex: BDVI/FEMALE, Route: INTRAGASTRIC, 3, 6 MG/KG IN ARACHIS OIL 5 D/WK FOR 104 WK (STUDY DURATION: 120 WK), 3, 6 MG/KG IN ARACHIS OIL 5 D/WK FOR 104 WK (STUDY DURATION: 120 WK), Tumor Site: Type of Lesion: THYROID: ADENOMA)?
A: active; positive

Q: And the carcinogen call (Species: RAT, Strain/Sex: BDVI/MALE, Route: INTRAGASTRIC, 3, 6 MG/KG IN ARACHIS OIL 5 D/WK FOR 104 WK (STUDY DURATION: 120 WK), 3, 6 MG/KG IN ARACHIS OIL 5 D/WK FOR 104 WK (STUDY DURATION: 120 WK), Tumor Site: Type of Lesion: THYROID: ADENOMA)?
A: active; positive

Q: And the carcinogen call (Species: Rat, Strain/Sex: Crl:CD(SD)BR/Female (50/Group), Route: Oral, 25, 125, 500, 800 ppm in feed for 2 yr, 25, 125, 500, 800 ppm in feed for 2 yr)?
A: inactive; negative

Q: And the carcinogen call (Species: Rat, Strain/Sex: Crl:CD(SD)BR/Male (50/Group), Route: Oral, 25, 125, 500, 800 ppm in feed for 2 yr, 25, 125, 500, 800 ppm in feed for 2 yr)?
A: inactive; negative

Q: With `CC[C@H](OC(C)=O)C(C[C@H](C)N(C)C)(c1ccccc1)c1ccccc1` as the compound, how does the carcinogen call (Species: MOUSE, Strain/Sex: B6C3F1/FEMALE, Route: ORAL, 7.6, 30.1 MG/KG IN DIET FOR DURATION OF STUDY (STUDY DURATION: 24 MO), 7.6, 30.1 MG/KG IN DIET FOR DURATION OF STUDY (STUDY DURATION: 24 MO)) read?
A: inactive; negative

Q: What about the carcinogen call (Species: MOUSE, Strain/Sex: B6C3F1/MALE, Route: ORAL, 7.6, 30.1 MG/KG IN DIET FOR DURATION OF STUDY (STUDY DURATION: 24 MO), 7.6, 30.1 MG/KG IN DIET FOR DURATION OF STUDY (STUDY DURATION: 24 MO)) of the same compound?
A: inactive; negative

Q: What about the carcinogen call (Species: RAT, Strain/Sex: F344/FEMALE, Route: ORAL, 5.7, 16.6 MG/KG IN DIET FOR DURATION OF STUDY (STUDY DURATION: 24 MO), 5.7, 16.6 MG/KG IN DIET FOR DURATION OF STUDY (STUDY DURATION: 24 MO), Tumor Site: Type of Lesion: LIVER: ADENOMA OR CARCINOMA, UTERUS: ENDOMETRIAL STROMAL POLYP) of the same compound?
A: active; positive

Q: What about the carcinogen call (Species: RAT, Strain/Sex: F344/MALE, Route: ORAL, 3.1, 9.7 MG/KG IN DIET FOR DURATION OF STUDY (STUDY DURATION: 24 MO), 3.1, 9.7 MG/KG IN DIET FOR DURATION OF STUDY (STUDY DURATION: 24 MO), Tumor Site: Type of Lesion: LIVER: ADENOMA OR CARCINOMA) of the same compound?
A: active; positive

Q: For `CCCC(CCC)C(=O)O`, which carcinogen call (Species: RAT, Strain/Sex: WISTAR/FEMALE, Route: ORAL, 125, 250, 500 MG/KG BW IN DIET FOR 104 WK (STUDY DURATION: 104 WK), 125, 250, 500 MG/KG BW IN DIET FOR 104 WK (STUDY DURATION: 104 WK), Tumor Site: Type of Lesion: UTERUS: ADENOCARCINOMA) is on record?
A: active; positive

Q: What about the carcinogen call (Species: RAT, Strain/Sex: WISTAR/MALE, Route: ORAL, 125, 250, 500 MG/KG BW IN DIET FOR 104 WK (STUDY DURATION: 104 WK), 125, 250, 500 MG/KG BW IN DIET FOR 104 WK (STUDY DURATION: 104 WK)) of the same compound?
A: inactive; negative

Q: Which results are given for `COc1ccc(OC(=O)N(CC(=O)O)Cc2ccc(OCCc3nc(-c4ccccc4)oc3C)cc2)cc1`?
A: carcinogen call (Species: Mouse, Strain/Sex: Crl:CD-1 (ICR)BR/Female (60/group), Route: Oral, 1, 5, 20 mg/kg (initial group) or 0, 40 mg/kg (supplemental group) by gavage daily for up to 105 wks, vehicle cont, 1, 5, 20 mg/kg (initial group) or 0, 40 mg/kg (supplemental group) by gavage daily for up to 105 wks, vehicle cont): inactive; negative (slight increases in hemangiosarcoma (multiple organs) and mammary glan; carcinogen call (Species: Mouse, Strain/Sex: Crl:CD-1 (ICR)BR/Male (60/group), Route: Oral, 1, 5, 20 mg/kg (initial group) or 0, 40 mg/kg (supplemental group) by gavage daily for up to 105 wks, vehicle cont, 1, 5, 20 mg/kg (initial group) or 0, 40 mg/kg (supplemental group) by gavage daily for up to 105 wks, vehicle cont, Tumor Site: Type of Lesion: GALLBLADDER: adenoma (1/60 at 20 mg/kg, 2/60 at 40 mg/kg), not significant): inactive; negative (although statistical significance was not obtained, the authors consid; carcinogen call (Species: Rat, Strain/Sex: Hsd:Sprague Dawley SD/Female (65/group), Route: Oral, 1, 5, 30, 50 mg/kg by gavage daily for up to 105 wks, vehicle controls administered alkaline PEG-400, 1, 5, 30, 50 mg/kg by gavage daily for up to 105 wks, vehicle controls administered alkaline PEG-400, Tumor Site: Type of Lesion: SUBCUTANEOUS TISSUE: lipoma (50 mg/kg only). UTERUS: Squamous cell carcinoma, adenoma and carcinoma, and squamous cell p, Tumor Site: Type of Lesion: SUBCUTANEOUS TISSUE: lipoma (50 mg/kg only). UTERUS: Squamous cell carcinoma, adenoma and carcinoma, and squamous cell p): active; positive (weak response); carcinogen call (Species: Rat, Strain/Sex: Hsd:Sprague Dawley SD/Male (65/group), Route: Oral, 1, 5, 30, 50 mg/kg by gavage daily for up to 105 wks, vehicle controls administered alkaline PEG-400, 1, 5, 30, 50 mg/kg by gavage daily for up to 105 wks, vehicle controls administered alkaline PEG-400, Tumor Site: Type of Lesion: URINARY BLADDER: transitional cell carcinoma and papilloma at 5, 30, and 50 mg/kg associated with increased urinary soli): active; positive, muraglitazar reported to be a peroxisome proliferator-activated recept

Q: Which carcinogen call (Species: MOUSE, Strain/Sex: CD-1/FEMALE, Route: INTRAPERITONEAL, 5, 10 AND 20 µL OF A 0.05 MOLAR SOLUTION ON DAYS 1, 8 AND 15 OF LIFE RESPECTIVELY (TOTAL DOSE: 1.75 UMOL) (STUDY DURA, 5, 10 AND 20 µL OF A 0.05 MOLAR SOLUTION ON DAYS 1, 8 AND 15 OF LIFE RESPECTIVELY (TOTAL DOSE: 1.75 UMOL) (STUDY DURA) does the source give for `c1ccc2c(c1)c1c(c3cccnc32)O1` here?
A: inactive; negative

Q: And the carcinogen call (Species: MOUSE, Strain/Sex: CD-1/MALE, Route: INTRAPERITONEAL, 5, 10 AND 20 µL OF A 0.05 MOLAR SOLUTION ON DAYS 1, 8 AND 15 OF LIFE RESPECTIVELY (TOTAL DOSE: 1.75 UMOL) (STUDY DURA, 5, 10 AND 20 µL OF A 0.05 MOLAR SOLUTION ON DAYS 1, 8 AND 15 OF LIFE RESPECTIVELY (TOTAL DOSE: 1.75 UMOL) (STUDY DURA)?
A: inactive; negative

Q: With `Cc1c(N)cccc1N` as the compound, how does the carcinogen call (Species: MOUSE, Strain/Sex: B6C3F1/FEMALE, Route: ORAL, 50, 100 PPM IN DIET, 50, 100 PPM IN DIET) read?
A: inactive; negative

Q: And the carcinogen call (Species: MOUSE, Strain/Sex: B6C3F1/MALE, Route: ORAL, 50, 100 PPM IN DIET, 50, 100 PPM IN DIET)?
A: inactive; negative

Q: What about the carcinogen call (Species: RAT, Strain/Sex: F344/FEMALE, Route: ORAL, 250, 500 PPM IN DIET, 250, 500 PPM IN DIET) of the same compound?
A: inactive; negative

Q: What about the carcinogen call (Species: RAT, Strain/Sex: F344/MALE, Route: ORAL, 250, 500 PPM IN DIET, 250, 500 PPM IN DIET) of the same compound?
A: inactive; negative
